Measured values taken from patent US4795743A, “2'-deamino-2'-hydroxyistamycin Bo derivatives of low toxicity” (Zaidan Hojin Biseibutsu Kagaku Kenkyu Kai, priority 1986, dated 1989).
In brackets after ≈: the same amount, converted by molar mass.

What was measured:
[1] = tested on: Staphylococcus aureus 209P; experiment: Antibacterial spectrum, standard serial dilution method of Japan Society of Chemotherapy; assay type: cell-based; settings: 209P, 18 h, read-out: Minimum Growth Inhibitory Concentration
[2] = tested on: Staphylococcus aureus Smith; experiment: Antibacterial spectrum, standard serial dilution method; assay type: cell-based; settings: 18 h, read-out: Minimum Growth Inhibitory Concentration
[3] = tested on: Staphylococcus aureus Ap 01; experiment: as above; assay type: cell-based; settings: AP01, 18 h, read-out: Minimum Growth Inhibitory Concentration
Sarcina lutea PCI 1001 = experiment: as above; assay type: cell-based; settings: Micrococcus luteus, PCI1001, 18 h, read-out: Minimum Growth Inhibitory Concentration
Bacillus anthracis = experiment: microbe, parasite or virus in culture; assay type: cell-based; settings: 18 h, read-out: Minimum Growth Inhibitory Concentration
[4] = tested on: Bacillus subtilis PCI 219; experiment: Antibacterial spectrum, standard serial dilution method; assay type: cell-based; settings: Bacillus subtilis, PCI219, 18 h, read-out: Minimum Growth Inhibitory Concentration
[5] = tested on: Bacillus cereus ATCC 1-702; experiment: as above; assay type: cell-based; settings: Bacillus cereus, ATCC1, 18 h, read-out: Minimum Growth Inhibitory Concentration
[6] = tested on: Mycobacterium smegmatis ATCC 607; experiment: as above; assay type: cell-based; settings: Mycolicibacterium smegmatis, ATCC607, 18 h, read-out: Minimum Growth Inhibitory Concentration
Escherichia coli NIHJ = experiment: as above; assay type: cell-based; settings: 18 h, read-out: Minimum Growth Inhibitory Concentration
[7] = tested on: Escherichia coli K-12 R388; experiment: as above; assay type: cell-based; settings: K12R388, 18 h, read-out: Minimum Growth Inhibitory Concentration
[8] = tested on: Escherichia coli K-12 J5 R11-2; experiment: as above; assay type: cell-based; settings: K12J5R112, 18 h, read-out: Minimum Growth Inhibitory Concentration
[9] = tested on: Escherichia coli K-12 ML1629; experiment: as above; assay type: cell-based; settings: K12ML1629, E. coli K-12 ML1629, Muller-Hinton medium, 37° C., 18 hours, read-out: Minimum Growth Inhibitory Concentration
[10] = tested on: Escherichia coli K-12 ML1410 R81; experiment: as above; assay type: cell-based; settings: K12ML1410R81, 18 h, read-out: Minimum Growth Inhibitory Concentration
[11] = tested on: Escherichia coli K-12 LA290 R55; experiment: as above; assay type: cell-based; settings: K12LA290R55, 18 h, read-out: Minimum Growth Inhibitory Concentration
[12] = tested on: Escherichia coli K-12 LA290 R56; experiment: as above; assay type: cell-based; settings: K12LA290R56, 18 h, read-out: Minimum Growth Inhibitory Concentration
Escherichia coli W677 = experiment: as above; assay type: cell-based; settings: W677, 18 h, read-out: Minimum Growth Inhibitory Concentration
[13] = tested on: Escherichia coli JR66/W677; experiment: as above; assay type: cell-based; settings: JR66/W677, 18 h, read-out: Minimum Growth Inhibitory Concentration
[14] = tested on: Escherichia coli K-12 C600 R135; experiment: as above; assay type: cell-based; settings: K12C600R135, E. coli K-12 C600 R135, Muller-Hinton medium, 37° C., 18 hours, read-out: Minimum Growth Inhibitory Concentration
Escherichia coli JR225 = experiment: as above; assay type: cell-based; settings: JR225, 18 h, read-out: Minimum Growth Inhibitory Concentration
[15] = tested on: Shigella dysernteriae JS11910; experiment: as above; assay type: cell-based; settings: Muller-Hinton medium, 37° C., 18 hours, read-out: Minimum Growth Inhibitory Concentration
[16] = tested on: Shibella flexneri 4b JS11811; experiment: as above; assay type: cell-based; settings: 18 h, read-out: Minimum Growth Inhibitory Concentration
Shigella sonnei = experiment: as above; assay type: cell-based; settings: Muller-Hinton medium, 37° C., 18 hours, read-out: Minimum Growth Inhibitory Concentration
[17] = tested on: Salmonella enteritidis 1891; experiment: as above; assay type: cell-based; settings: Salmonella enterica, Muller-Hinton medium, 37° C., 18 hours, read-out: Minimum Growth Inhibitory Concentration
Proteus vulgaris OX19 = experiment: as above; assay type: cell-based; settings: Proteus vulgaris, OX19, 18 h, read-out: Minimum Growth Inhibitory Concentration
Proteus rettgeri GN466 = experiment: as above; assay type: cell-based; settings: Providencia rettgeri; Proteus rettgeri GN466; Muller-Hinton medium, 37° C., 18 hours; read-out: Minimum Growth Inhibitory Concentration
Serratia sp. SOU = experiment: as above; assay type: cell-based; settings: Serratia, 18 h, read-out: Minimum Growth Inhibitory Concentration
Serratia sp. 4 = experiment: as above; assay type: cell-based; settings: Muller-Hinton medium, 37° C., 18 hours, read-out: Minimum Growth Inhibitory Concentration
Providencia sp. Pv16 = experiment: as above; assay type: cell-based; settings: Providencia, SP.PV16, 18 h, read-out: Minimum Growth Inhibitory Concentration
[18] = tested on: Pseudomonas aeruguinosa A3; experiment: as above; assay type: cell-based, Pseudomonas aeruginosa; settings: Pseudomonas aeruguinosa A3; Muller-Hinton medium, 37° C., 18 hours; read-out: Minimum Growth Inhibitory Concentration
[19] = tested on: Pseudomonas aeruguinosa H11; experiment: as above; assay type: cell-based, Pseudomonas aeruginosa; settings: Muller-Hinton medium, 37° C., 18 hours, read-out: Minimum Growth Inhibitory Concentration
[20] = tested on: Pseudomonas aeruguinosa TI-13; experiment: as above; assay type: cell-based, Pseudomonas aeruginosa; settings: TI13; Pseudomonas aeruguinosa TI-13; Muller-Hinton medium, 37° C., 18 hours; read-out: Minimum Growth Inhibitory Concentration
[21] = tested on: Pseudomonas aeruguinosa GN315; experiment: as above; assay type: cell-based, Pseudomonas aeruginosa; settings: Pseudomonas aeruguinosa GN315; Muller-Hinton medium, 37° C., 18 hours; read-out: Minimum Growth Inhibitory Concentration
[22] = tested on: Pseudomonas aeruguinosa PST1; experiment: as above; assay type: cell-based, Pseudomonas aeruginosa; settings: Muller-Hinton medium, 37° C., 18 hours, read-out: Minimum Growth Inhibitory Concentration
mice = experiment: Acute toxicity by intravenous injection in mice

**Q.** What does the source list for CNCC1CCC(O)C(OC2C(N)CC(O)C(N(C)C(=O)CCN)C2O)O1 (stereo not drawn) [Compound No. 4, 4-N-(β-Alanyl)-2'-deamino-2'-hydroxy-3-O-demethylistamycin Bo]?
**A.** MIC [1]: 1.56 mg/L (≈ 4 µM); MIC [2]: 1.56 mg/L (≈ 4 µM); MIC [3]: 3.13 mg/L (≈ 8.02 µM); MIC (Sarcina lutea PCI 1001): 1.56 mg/L (≈ 4 µM); MIC (Bacillus anthracis): 1.56 mg/L (≈ 4 µM); MIC [4]: 3.13 mg/L (≈ 8.02 µM); MIC [5]: 6.25 mg/L (≈ 16 µM); MIC [6]: 6.25 mg/L (≈ 16 µM); MIC (Escherichia coli NIHJ): 1.56 mg/L (≈ 4 µM); MIC [7]: 1.56 mg/L (≈ 4 µM); MIC [8]: 0.78 mg/L (≈ 2 µM); MIC [9]: 3.13 mg/L (≈ 8.02 µM); MIC [10]: 6.25 mg/L (≈ 16 µM); MIC [11]: 6.25 mg/L (≈ 16 µM); MIC [12]: 3.13 mg/L (≈ 8.02 µM); MIC (Escherichia coli W677): 1.56 mg/L (≈ 4 µM); MIC [13]: 3.13 mg/L (≈ 8.02 µM); MIC [14]: 3.13 mg/L (≈ 8.02 µM); MIC (Escherichia coli JR225): 1.56 mg/L (≈ 4 µM); MIC [15]: 3.13 mg/L (≈ 8.02 µM); MIC [16]: 6.25 mg/L (≈ 16 µM); MIC (Shigella sonnei): 3.13 mg/L (≈ 8.02 µM); MIC [17]: 3.13 mg/L (≈ 8.02 µM); MIC (Proteus vulgaris OX19): 1.56 mg/L (≈ 4 µM); MIC (Proteus rettgeri GN466): 0.39 mg/L (≈ 0.999 µM); MIC (Serratia sp. SOU): 1.56 mg/L (≈ 4 µM); MIC (Serratia sp. 4): 12.5 mg/L (≈ 32 µM); MIC (Providencia sp. Pv16): 1.56 mg/L (≈ 4 µM); MIC [18]: 0.39 mg/L (≈ 0.999 µM); MIC [19]: 12.5 mg/L (≈ 32 µM); MIC [20]: 12.5 mg/L (≈ 32 µM); MIC [21]: 12.5 mg/L (≈ 32 µM); MIC [22]: 12.5 mg/L (≈ 32 µM); acute toxicity (survival, symptoms) (mice; mice, intravenous injection, 200 mg/kg): survived without showing any sympton of toxicity; toxicity (mice; overall statement, comparison with istamycin B or low toxicity): lower toxicity than itstamycin B
